The supplement of paper PMC10307832

How the values were obtained:
Assay in all cases: relative viability (nuclei count vs DMSO), 5 days (fraction); higher = more cells survive
A-427 = tested on: A-427
Procedure, shortened: (§1)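 Five library-drug doses in √10 steps were combined with a fixed anchor-drug dose, or a single drug was given alone, by pin tool to lung cancer cell lines in 1536-well plates the day after seeding. Nuclei were stained and counted after 5 days. Relative viability is the nuclei count in treated wells over that in vehicle wells, taken as the median of duplicate plates.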

COR-L 105 = tested on: COR-L 105
Procedure, shortened: as §1

ChaGo-K-1 = tested on: ChaGo-K-1
Procedure, shortened: as §1

EKVX = tested on: EKVX
Procedure, shortened: as §1

EMC-BAC-2 = tested on: EMC-BAC-2
Procedure, shortened: as §1

H3255 = tested on: H3255
Procedure, shortened: as §1

HCC-366 = tested on: HCC-366
Procedure, shortened: as §1

LK-2 = tested on: LK-2
Procedure, shortened: as §1

LOU-NH91 = tested on: LOU-NH91
Procedure, shortened: as §1

NCI-H1563 = tested on: NCI-H1563
Procedure, shortened: as §1

NCI-H1666 = tested on: NCI-H1666
Procedure, shortened: as §1

NCI-H1734 = tested on: NCI-H1734
Procedure, shortened: as §1

NCI-H1755 = tested on: NCI-H1755
Procedure, shortened: as §1

NCI-H1975 = tested on: NCI-H1975
Procedure, shortened: as §1

NCI-H2170 = tested on: NCI-H2170
Procedure, shortened: as §1

NCI-H23 = tested on: NCI-H23
Procedure, shortened: as §1

NCI-H441 = tested on: NCI-H441
Procedure, shortened: as §1

NCI-H520 = tested on: NCI-H520
Procedure, shortened: as §1

NCI-H596 = tested on: NCI-H596
Procedure, shortened: as §1

PC-3 [JPC-3] = tested on: PC-3 [JPC-3]
Procedure, shortened: as §1

SK-MES-1 = tested on: SK-MES-1
Procedure, shortened: as §1

SW 900 = tested on: SW 900
Procedure, shortened: as §1

`COc1nc(C)cnc1NS(=O)(=O)c1cccnc1-c1ccc(-c2nnco2)cc1` [Zibotentan] + COc1cc2c(Oc3ccc(NC(=O)C4(C(=O)Nc5ccc(F)cc5)CC4)cc3F)ccnc2cc1OCCCN1CCOCC1 [Foretinib] (partner 0.25 µM) was tested, and the relative viability (A-427; first compound 0.08 µM) was 1.14, the relative viability (A-427; first compound 0.253 µM) was 1.1 and the relative viability (A-427; first compound 0.8 µM) was 1.1. The relative viability (A-427; first compound 2.53 µM) was 1.19, the relative viability (COR-L 105; first compound 0.08 µM) was 1.31 and the relative viability (COR-L 105; first compound 0.253 µM) was 0.996. For the same molecule, the relative viability (COR-L 105; first compound 0.8 µM) was 1.1, the relative viability (COR-L 105; first compound 2.53 µM) was 1.03 and the relative viability (ChaGo-K-1; first compound 0.08 µM) was 0.941. For the same molecule, the relative viability (ChaGo-K-1; first compound 0.253 µM) was 0.926, the relative viability (ChaGo-K-1; first compound 0.8 µM) was 0.977 and the relative viability (ChaGo-K-1; first compound 2.53 µM) was 0.841. It also gave a relative viability (EKVX; first compound 0.08 µM) of 0.892, a relative viability (EKVX; first compound 0.253 µM) of 0.762 and a relative viability (EKVX; first compound 0.8 µM) of 1.11. The relative viability (EKVX; first compound 2.53 µM) was 0.875, the relative viability (EMC-BAC-2; first compound 0.08 µM) was 1.07 and the relative viability (EMC-BAC-2; first compound 0.8 µM) was 1.05. The relative viability (EMC-BAC-2; first compound 2.53 µM) was 1.05, the relative viability (H3255; first compound 0.08 µM) was 0.966 and the relative viability (H3255; first compound 0.253 µM) was 0.802. For the same molecule, the relative viability (H3255; first compound 0.8 µM) was 0.945, the relative viability (H3255; first compound 2.53 µM) was 0.987 and the relative viability (HCC-366; first compound 0.08 µM) was 0.977. The relative viability (HCC-366; first compound 0.253 µM) was 0.903, the relative viability (HCC-366; first compound 0.8 µM) was 0.964 and the relative viability (HCC-366; first compound 2.53 µM) was 0.976. For the same molecule, the relative viability (LK-2; first compound 0.08 µM) was 1.37, the relative viability (LK-2; first compound 0.253 µM) was 1.31 and the relative viability (LK-2; first compound 0.8 µM) was 0.895. For the same molecule, the relative viability (LK-2; first compound 2.53 µM) was 1.17, the relative viability (LOU-NH91; first compound 0.08 µM) was 0.903 and the relative viability (LOU-NH91; first compound 0.253 µM) was 0.841. It also gave a relative viability (LOU-NH91; first compound 0.8 µM) of 0.969, a relative viability (LOU-NH91; first compound 2.53 µM) of 0.888 and a relative viability (NCI-H1563; first compound 0.08 µM) of 0.985. The relative viability (NCI-H1563; first compound 0.8 µM) was 1.02, the relative viability (NCI-H1563; first compound 2.53 µM) was 0.979 and the relative viability (NCI-H1666; first compound 0.08 µM) was 0.902. It also gave a relative viability (NCI-H1666; first compound 0.253 µM) of 0.918, a relative viability (NCI-H1666; first compound 0.8 µM) of 0.938 and a relative viability (NCI-H1666; first compound 2.53 µM) of 0.972. The relative viability (NCI-H1734; first compound 0.08 µM) was 0.875, the relative viability (NCI-H1734; first compound 0.253 µM) was 0.773 and the relative viability (NCI-H1734; first compound 0.8 µM) was 0.883. The relative viability (NCI-H1734; first compound 2.53 µM) was 0.812, the relative viability (NCI-H1755; first compound 0.08 µM) was 0.943 and the relative viability (NCI-H1755; first compound 0.253 µM) was 0.897. It also gave a relative viability (NCI-H1755; first compound 0.8 µM) of 0.897, a relative viability (NCI-H1755; first compound 2.53 µM) of 0.929 and a relative viability (NCI-H1975; first compound 0.08 µM) of 0.98. For the same molecule, the relative viability (NCI-H1975; first compound 0.253 µM) was 0.849, the relative viability (NCI-H1975; first compound 0.8 µM) was 0.824 and the relative viability (NCI-H1975; first compound 2.53 µM) was 0.856. For the same molecule, the relative viability (NCI-H2170; first compound 0.08 µM) was 1.05, the relative viability (NCI-H2170; first compound 0.253 µM) was 1.07 and the relative viability (NCI-H2170; first compound 0.8 µM) was 1.03. It also gave a relative viability (NCI-H2170; first compound 2.53 µM) of 0.969, a relative viability (NCI-H23; first compound 0.08 µM) of 1.08 and a relative viability (NCI-H23; first compound 0.253 µM) of 0.766. It also gave a relative viability (NCI-H23; first compound 0.8 µM) of 0.986, a relative viability (NCI-H23; first compound 2.53 µM) of 1.17 and a relative viability (NCI-H441; first compound 0.08 µM) of 1.11. For the same molecule, the relative viability (NCI-H441; first compound 0.253 µM) was 0.745, the relative viability (NCI-H441; first compound 0.8 µM) was 1.03 and the relative viability (NCI-H441; first compound 2.53 µM) was 1.04. For the same molecule, the relative viability (NCI-H520; first compound 0.08 µM) was 0.811, the relative viability (NCI-H520; first compound 0.253 µM) was 0.738 and the relative viability (NCI-H520; first compound 0.8 µM) was 0.586. For the same molecule, the relative viability (NCI-H520; first compound 2.53 µM) was 0.742, the relative viability (NCI-H596; first compound 0.08 µM) was 0.899 and the relative viability (NCI-H596; first compound 0.253 µM) was 0.794. For the same molecule, the relative viability (NCI-H596; first compound 0.8 µM) was 0.768, the relative viability (NCI-H596; first compound 2.53 µM) was 0.914 and the relative viability (PC-3 [JPC-3]; first compound 0.08 µM) was 1.05. For the same molecule, the relative viability (PC-3 [JPC-3]; first compound 0.253 µM) was 1.05, the relative viability (PC-3 [JPC-3]; first compound 0.8 µM) was 1.03 and the relative viability (PC-3 [JPC-3]; first compound 2.53 µM) was 0.973. The relative viability (SK-MES-1; first compound 0.08 µM) was 0.974, the relative viability (SK-MES-1; first compound 0.253 µM) was 0.886 and the relative viability (SK-MES-1; first compound 0.8 µM) was 0.974. For the same molecule, the relative viability (SK-MES-1; first compound 2.53 µM) was 1.02, the relative viability (SW 900; first compound 0.08 µM) was 0.997 and the relative viability (SW 900; first compound 0.253 µM) was 0.811. It also gave a relative viability (SW 900; first compound 0.8 µM) of 0.887 and a relative viability (SW 900; first compound 2.53 µM) of 0.857.
